Results on three substances are retold here after patent US6855515B1, “Autoantigenic fragments, methods and assays” (Merck & Co., Inc., priority 1998, dated 2005).

One data set deals with T1, granzyme B (Homo sapiens, UniProt P10144).
T1 construct: Some of these preparations were used for the further purification of granzyme B (Tschopp, 1994); endogenous in cells; host or cells: YT cells (human NK cell line), cytoplasmic granules
The data set is described as follows: In vitro cleavage of substrates by purified granzyme B, kcat/Km from densitometry. It counts as biochemical. The note with it: in the presence of 10 μg/ml DNA. Here is the method:
cDNAs for caspase-3, caspase-7, NuMA and PARP were used to drive the synthesis of [^35S]methionine-labeled proteins by coupled transcription/translation in rabbit reticulocyte lysates. For all purified substrates, cleavage reactions were performed in buffer consisting of 50 mM Hepes pH 7.4, 10% sucrose and 5 mM DTT in the presence of the granzyme B concentrations indicated in FIG. 1. After incubation at 37° C. for 15 min, reactions were terminated and samples were electrophoresed on 10% (DNA-PKcs, NuMA), 12% (PARP) or 15% (caspases 3 and 7) SDS-polyacrylamide gels. Radiolabeled proteins and their fragments were visualized by fluorography. Intact and cleaved DNA-PKcs were visualized by immunoblotting with monoclonal antibody 18-2 (Casciola-Rosen et al., 1995).
Catalytic constant (kcat/km) values were calculated essentially as described (Casciola-Rosen et al., 1996). Briefly, subsaturating substrate concentrations were used in each in vitro reaction, and product appearance was assumed to be a first order process. […] Several appropriate densitometry systems are available, e.g. PDI Discovery System, with Quantity One Software, Protein Databases, Inc., (Huntington Station, N.Y.). kcat/Km values were calculated by fitting the dose-response data to the first order rate equation: percent substrate cleavage=100*((1^-e-((kcat*[E]/Km)*time)). […]

Data set [1] concerns SP1. In words: DNA-PKcs kinase assay (SP1 phosphorylation). The note with it: 12.5 nM granzyme B, 13.5 min, 37° C., then DNA, ATP. In kind it is biochemical. As to the method: Kinase assays were performed on intact DNA-PKcs or DNA-PKcs that had first been cleaved by granzyme B as follows. Reaction mixtures containing 10 mM Hepes pH 7.4, 2 mM MgCl2, 10 mM KCl, 2.7 mM DTT, and 50 ng DNA-PKcs in the absence or presence of 12.5 nM purified granzyme B, were incubated for 13.5 min at 37° C. Kinase reactions were subsequently initiated by adding 100 ng SP1 and 150 μM ATP containing 1.5 μCi [^32P]-ATP (3000 Ci/mmol), in the absence or presence of 10 μg/ml sheared herring sperm DNA (Promega). Samples were incubated at 37° C. for 10 min (well within the linear range of the assay, data not shown), before terminating the reactions by adding SDS gel buffer and boiling. After electrophoresing the samples on 8% SDS-PAGE, SP1 phosphorylation was detected by autoradiography, and quantitated by densitometry. Cleaved status of the kinase was confirmed in parallel by immunoblotting.

The target in data set [2] is SP1. The note with it: Casciola-Rosen et al., 1996; cited from earlier work.
The test system of data set [3] is endogenous DNA-PKcs, NuMA and PARP in HeLa cell lysates. In words: Cleavage of endogenous substrates in HeLa lysates after adding purified granzyme B, with caspase inhibitors. In kind it is biochemical. Here is the method: (§1) Control HeLa lysates were prepared using methods commonly applied in the art, as described in Casciola-Rosen et al., 1994. […] The mixtures were incubated for 15 mn on ice to facilitate binding of the inhibitors to proteases prior to performing cleavage reactions at 37° C. for 60 min. After electrophoresing the samples on 10% SDS-polyacrylamide gels containing 0.087% bisacrylamide, the intact proteins and their cleaved fragments were visualized by immunoblotting.

A further data set deals with K562 cells. The data set is described as follows: Substrate cleavage in intact K562 cells during YT cell granule content-induced cytotoxicity. It counts as cell-based. Particulars: 100 μM Ac-DEVD-CHO. As to the method: Intact cytoplasmic granules were purified from YT cells, and the granule contents were isolated using known methods (Tschopp, 1994). Some of these preparations were used for the further purification of granzyme B (Tschopp, 1994). Purity of the protease was confirmed by silver staining of overloaded SDS-polyacrylamide gels. The cytotoxic effects of YT granule contents were determined as follows: Jurkat T cells or K562 cells were radiolabeled with 100 μCi/ml [^51Cr] sodium chromate, washed, resuspended in Ca^2+-free HBSS, and then incubated with granule contents (0-5 μl) and 1 mM CaCl2 for increasing times. The percentage specific [^51Cr] was calculated using the following formula: % specific lysis=[(sample cpm−spontaneous cpm)/(maximum cpm−spontaneous cpm)]×100. […] Aliquots containing 3.4×10^5 cells were incubated for a further 90 min at 37° C. with 1 mM EDTA or 1 mM Ca^2+ and 2 μl of YT granule contents (which induces 20-40% specific chromium release in 60 min, and characteristic internucleosomal DNA degradation. The total reaction volume of each sample was 30 μl. The reactions were terminated by boiling in SDS gel buffer and samples were electrophoresed and immunoblotted as described above. Experiments were performed using 2 different preparations of granule contents and 4 different cell types (K562, Jurkat, HeLa, primary human myoblasts).

Data set [4] deals with K562 erythroleukemia cells. The data set is described as follows: Substrate cleavage in Fas-negative K562 target cells attacked by LAK cells. It counts as cell-based. Here is the method: LAK cells were obtained by culturing human PBMCs for 4 days in LAK medium (RPMI supplemented with 10 mM Hepes pH 7.4, L-glutamine, 2% autologous plasma), and 1000 Cetus units/ml of hrIL-2 (Chiron Therapeutics, Emeryville, Calif.) (Topalian et al., 1989). […] After 2 washes with PD, cells were lysed and boiled in SDS sample buffer, and PARP, DNA-PKcs and NuMA were assayed by immunoblotting as described above.

Another data set concerns HeLa cells. In words: Confocal immunofluorescence of morphologic changes in HeLa cells exposed to YT cell granule contents. In kind it is cell-based. Particulars: 100 μM Ac-DEVD-CHO. Here is the method: Morphologic experiments were performed on HeLa cells grown on No. 1 glass coverslips. […] 25 μl of HBSS containing 2 mM CaCl2 was then added to each coverslip (mixed well by repeated, gentle aspiration), followed by incubation in a humidified chamber at 37° C. for 60 min. […] Coverslips were mounted on glass slides with Permafluor (Lipshaw, Pittsburgh, Pa.), and confocal microscopy was performed on a scanning confocal microscopy system (LSM 410, Carl Zeiss, Inc., Thornwood, N.J.).

The target of data set [5] is T2, caspase-3 (Homo sapiens, UniProt P42574).
T2 construct: made in house
T2 sequence (P42574 29-175 limits assumed): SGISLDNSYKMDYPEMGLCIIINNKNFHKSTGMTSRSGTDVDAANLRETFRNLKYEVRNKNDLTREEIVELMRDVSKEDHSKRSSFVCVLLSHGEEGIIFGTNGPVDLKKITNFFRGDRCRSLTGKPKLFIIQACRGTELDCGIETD
T2 sequence (P42574 176-277 limits assumed): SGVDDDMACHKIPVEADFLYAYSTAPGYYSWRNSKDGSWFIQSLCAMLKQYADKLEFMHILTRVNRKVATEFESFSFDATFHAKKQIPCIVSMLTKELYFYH
The data set is described as follows: Cleavage of endogenous substrates in HeLa lysates by added purified caspase-3, with inhibitors. It counts as biochemical. The note with it: 100 nM inhibitor, HeLa lysate, 105 pM caspase-3, 37° C. 60 min. Here is the method:
as §1

In the next data set the target is T3, caspase-1 (Homo sapiens, UniProt P29466).
T3 sequence (P29466 120-297 limits assumed): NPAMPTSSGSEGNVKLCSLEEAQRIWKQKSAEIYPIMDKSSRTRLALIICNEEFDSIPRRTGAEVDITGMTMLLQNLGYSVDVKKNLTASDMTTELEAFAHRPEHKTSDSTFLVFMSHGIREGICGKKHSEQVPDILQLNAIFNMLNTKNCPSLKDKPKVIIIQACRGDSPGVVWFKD
T3 sequence (P29466 317-404 limits assumed): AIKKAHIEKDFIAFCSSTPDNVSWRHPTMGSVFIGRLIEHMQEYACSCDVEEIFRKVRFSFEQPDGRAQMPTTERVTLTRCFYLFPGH
Particulars: cited from earlier work.

The target of data set [6] is T2, caspase-3. Particulars: cited from earlier work.
Another data set addresses T4, caspase-7 (Homo sapiens, UniProt P55210).
T4 sequence (P55210 24-198 limits assumed): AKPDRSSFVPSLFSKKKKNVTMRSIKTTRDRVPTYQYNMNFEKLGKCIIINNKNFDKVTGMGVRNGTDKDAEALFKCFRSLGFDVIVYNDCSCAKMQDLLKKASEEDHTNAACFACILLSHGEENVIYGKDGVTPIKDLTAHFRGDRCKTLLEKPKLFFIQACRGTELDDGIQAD
T4 sequence (P55210 207-303 limits assumed): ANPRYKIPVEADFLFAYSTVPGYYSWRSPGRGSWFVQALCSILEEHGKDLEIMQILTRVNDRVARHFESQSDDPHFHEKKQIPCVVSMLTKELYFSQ
The note with it: cited from earlier work.

The target in a further data set is T5, caspase-10 (Homo sapiens, UniProt Q92851).
T5 sequence (Q92851 220-415 limits assumed): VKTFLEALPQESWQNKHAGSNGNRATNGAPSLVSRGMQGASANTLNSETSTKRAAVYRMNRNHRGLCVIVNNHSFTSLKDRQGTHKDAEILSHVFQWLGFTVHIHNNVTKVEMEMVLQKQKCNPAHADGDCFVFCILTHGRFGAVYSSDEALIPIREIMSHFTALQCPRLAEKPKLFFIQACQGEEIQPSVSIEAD
T5 sequence (Q92851 416-521 limits assumed): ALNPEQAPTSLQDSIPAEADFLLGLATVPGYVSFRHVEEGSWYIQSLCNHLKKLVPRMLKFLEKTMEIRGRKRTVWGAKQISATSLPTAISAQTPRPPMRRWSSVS
The note with it: cited from earlier work.

Where [7] appears, read: 100 μM Ac-DEVD-CHO, LAK:K562 5:1.

“Also recorded” adds a separate entry of the source.

T1 sequence (P10144 21-247): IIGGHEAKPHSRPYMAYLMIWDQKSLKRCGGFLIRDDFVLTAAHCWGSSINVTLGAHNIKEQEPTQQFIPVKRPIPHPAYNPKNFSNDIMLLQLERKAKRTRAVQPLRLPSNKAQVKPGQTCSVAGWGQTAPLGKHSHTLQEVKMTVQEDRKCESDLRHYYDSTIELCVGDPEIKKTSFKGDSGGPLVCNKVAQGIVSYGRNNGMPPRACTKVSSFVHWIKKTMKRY

In the case of “DNA-dependent protein kinase catalytic subunit [DNA-PKCS]”, the “decrease of DNA-PKcs cleavage by granzyme B” value with granzyme B is given as “approximately 90%”. Besides, the “kinase activity of DNA-PKcs after cleavage by granzyme B” value in the data set with SP1 [1] is “entirely abolished; also recorded: completely abrogates”. Further, the “kinase activity of DNA-PKcs after caspase-3 cleavage” value at SP1 [2] is listed as “approximately 60 % of control levels”.
“N-(N-Ac-Asp-Glu-Val)-3-amino-4-oxobutanoic acid [Ac-DEVD-CHO]”: the “cleavage of PARP” value in [3] (inhibitor added 15 minutes prior to 12.5 nM granzyme B, 100 nM Ac-DEVD-CHO or 2 mM iodoacetamide) is listed as “almost entirely abolished”. In data set [3] (inhibitor added prior to granzyme B), the “generation of caspase-3-specific fragments of NuMA (185 kDa) and DNA-PKcs (150 kDa C-terminal)” value is “abolished”. The “generation of 150 kDa and 120 kDa DNA-PKcs fragments” value in the data set on K562 cells (YT granule contents) is “entirely inhibited”. Also, in the data set with K562 cells (YT granule contents plus Ca2+), the “generation of the 89 kDa PARP fragment” value is given as “completely inhibited”; the “production of granzyme B-specific cleavage fragments of DNA-PKcs and NuMA” value is reported as “not inhibited”. In [4] (setting [7]), the “100 kDa granzyme B-specific fragment of DNA-PKcs” value was “insensitive” and the “inhibition of generation of caspase-3-specific fragments of DNA-PKcs” value was over 90%. In addition, the PARP cleavage result in data set [4] (100 μM Ac-DEVD-CHO, LAK:K562 5:1, 4 h) was “entirely abolished”. Moreover, the “cleavage of PMS1” value in data set [4] (intact cell killing by LAK cells, Ac-DEVD-CHO added) was “unaffected”. Further, the “granule content-induced surface blebbing, nuclear fragmentation, apoptotic bodies, redistribution of nuclear autoantigens” value in the data set with HeLa cells is “prevented”.
Turning to “N-(N-Ac-Tyr-Val-Ala)-3-amino-4-oxobutanoic acid [Ac-YVAD-CHO]”, in the data set with caspase-3 [5], the “substrate fragments generated by the activity of caspase-3” value is “unaffected”. In addition, the Ki with caspase-1 was 0.6 nM; with caspase-3 [6], over 10000 nM; with caspase-7 it was over 10000 nM; in the data set with caspase-10 it was 408 nM.
